The structures appear in SMILES notation.

The target in this experiment is T1, KRAS G12C 1-169, his-tagged protein, GDP-loaded (Homo sapiens, UniProt P01116, G12C).
T1 construct: KRAS G12C 1-169, his-tagged protein, GDP-loaded; His tag
In words: Biochemical assay: covalent modification of KRAS G12C, analysed by mass spectrometry (RapidFire/TOF or Q-Exactive). Also: time not given here. Format: binding. The settings on record: Modification activity, modification percentage from MS peak intensities. The method, boiled down:
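GDP-loaded His-tagged KRAS G12C 1-169 (2 μM or 0.5 μM in 20 mM Hepes, 150 mM NaCl, 1 mM MgCl2) reacted with compound at 32 μM or 8 μM final (2% DMSO) for a set time, then quenched with formic acid. Percent covalent modification from deconvoluted intact-protein MS peak intensities (RapidFire/TOF or LC-Q Exactive).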
For the molecule `C=CC(=O)N1CC2(CCN(c3nc(OCc4cc(C(F)(F)F)ccn4)nc(-c4c(C)ccc5cnn(C)c45)c3C#N)C2)C1` [Compound I-166, 4-(2-acryloyl-2,6-diazaspiro[3.4]octan-6-yl)-6-(1,6-dimethyl-1H-indazol-7-yl)-2-((4-(trifluoromethyl)pyri-din-2-yl)methoxy)pyrimidine-5-carbonitrile], the Binding % entry is “++ (++ indicates binding activity from 50 to 85%)”. On to `C=CC(=O)N1CC2(CCN(c3nc(OC[C@@H]4CCCN4C)nc(-c4ccnc(N)n4)c3C#N)C2)C1` [Compound I-167, (S)-6-(2-acryloyl-2,6-diazaspiro[3.4]octan-6-yl)-2′-amino-2-((1-methylpyrrolidin-2-yl)methoxy)-[4,4′-bipyrimidine]-5-carbonitrile], for which the Binding % result was “+ (+ indicates binding activity greater than 0% and up to 50%)”.

Take `C=CC(=O)N1CC2(CCN(c3nc(OCc4ncccn4)nc(-c4c(C)ccc5cnn(C)c45)c3C#N)C2)C1` [Compound I-168, 4-(2-acryloyl-2,6-diazaspiro[3.4]octan-6-yl)-6-(1,6-dimethyl-1H-indazol-7-yl)-2-(pyrimidin-2-ylmethoxy)pyrimidine-5-carbonitrile]: the Binding % result was “+ (+ indicates binding activity greater than 0% and up to 50%)”. Turning to `C=CC(=O)N1CC2(CCN(c3nc(OCc4cnc(C)nc4)nc(-c4c(C)ccc5cnn(C)c45)c3C#N)C2)C1` [Compound I-169, 4-(2-acryloyl-2,6-diazaspiro[3.4]octan-6-yl)-6-(1,6-dimethyl-1H-indazol-7-yl)-2-((2-methylpyrimidin-5-yl)methoxy)pyrimidine-5-carbonitirle], the Binding % result was “++ (++ indicates binding activity from 50 to 85%)”.

With `C=CC(=O)N1CC2(CCN(c3nc(OCc4cccc(C)n4)nc(-c4c(C)ccc5cnn(C)c45)c3C#N)C2)C1` [Compound I-170, 4-(2-acryloyl-2,6-diazaspiro[3.4]octan-6-yl)-6-(1,6-dimethyl-1H-indazol-7-yl)-2-((6-methylpyridin-2-yl)methoxy)pyrimidine-5-carbonitrile], the Binding % entry is recorded as “++ (++ indicates binding activity from 50 to 85%)”.

With `C=CC(=O)N1CC2(CCN(c3nc(OCc4cnc(C)nc4)nc(-c4c(C)ccc5[nH]ncc45)c3C#N)C2)C1` [Compound I-171, 4-(2-acryloyl-2,6-diazaspiro[3.4]octan-6-yl)-6-(5-methyl-1H-indazol-4-yl)-2-((2-methylpyrimidin-5-yl)methoxy)pyrimidine-5-carbonitrile], the Binding % entry is listed as “+++ (+++ indicates binding activity greater than 85%)”. With `C=CC(=O)N1CC2(CCN(c3nc(OCc4cccc(C)n4)nc(-c4c(C)ccc5[nH]ncc45)c3C#N)C2)C1` [Compound I-172, 4-(2-acryloyl-2,6-diazaspiro[3.4]octan-6-yl)-6-(5-methyl-1H-indazol-4-yl)-2-((6-methylpyridin-2-yl)methoxy)pyrimidine-5-carbonitrile] the entry was “+++ (+++ indicates binding activity greater than 85%)”; with `C=CC(=O)N1CC2(CCN(c3nc(OCc4ccnnc4)nc(-c4c(C)ccc5[nH]ncc45)c3C#N)C2)C1` [Compound I-173, 4-(2-acryloyl-2,6-diazaspiro[3.4]octan-6-yl)-6-(5-methyl-1H-indazol-4-yl)-2-(pyridazin-4-ylmethoxy)pyrimidine-5-carbonitrile], “++ (++ indicates binding activity from 50 to 85%)”.

Take `C=CC(=O)N1CC2(CCN(c3nc(OCc4cc(C(F)(F)F)ccn4)nc(-c4c(C)ccc5[nH]ncc45)c3C#N)C2)C1` [Compound I-174, 4-(2-acryloyl-2,6-diazaspiro[3.4]octan-6-yl)-6-(5-methyl-1H-indazol-4-yl)-2-((4-(trifluoromethyl)pyri-din-2-yl)methoxy)pyrimidine-5-carbonitrile]: the Binding % result was “++ (++ indicates binding activity from 50 to 85%)”. With `C=CC(=O)N1CC2(CCN(c3c(OCc4ccccn4)ncc(-c4c(C)ccc5cnn(C)c45)c3C#N)C2)C1` [Compound I-175, 3-(2-acryloyl-2,6-diazaspiro[3.4]octan-6-yl)-5-(1,6-dimethyl-1H-indazol-7-yl)-2-(pyridin-2-ylmethoxy)isonicoti-nonitrile], the Binding % entry is recorded as “++ (++ indicates binding activity from 50 to 85%)”. With `C=CC(=O)N1CC2(CC(=O)N(c3nc(N4CCOCC4)nc(-c4c(C)ccc5cn[nH]c45)c3C#N)C2)C1` [Compound I-176, 4-(2-acryloyl-7-oxo-2,6-diazaspiro[3.4]octan-6-yl)-6-(6-methyl-1H-indazol-7-yl)-2-morpholinopyrimidine-5-carbonitrile], the Binding % entry was “+ (+ indicates binding activity greater than 0% and up to 50%)”.

For the molecule `C=CC(=O)N1CC2(CC(=O)N(c3nc(N4CCOCC4)nc(-c4c(O)cccc4F)c3C#N)C2)C1` [Compound I-177, 4-(2-acryloyl-7-oxo-2,6-diazaspiro[3.4]octan-6-yl)-6-(2-fluoro-6-hydroxyphenyl)-2-morpholinopyrimidine-5-carbonitrile], the Binding % entry was “+ (+ indicates binding activity greater than 0% and up to 50%)”. As for `C=CC(=O)N1CC2(CCN(c3nc(=O)n(Cc4ccccc4)c(-c4c(C)ccc5[nH]ncc45)c3C#N)C2)C1` [Compound I-178, 4-(2-acryloyl-2,6-diazaspiro[3.4]octan-6-yl)-1-benzyl-6-(5-methyl-1H-indazol-4-yl)-2-oxo-1,2-dihydropyrimidine-5-carbonitrile], the Binding % result was “+ (+ indicates binding activity greater than 0% and up to 50%)”. For `C=CC(=O)N1CC2(CCN(c3c(C#N)c(-c4c(C)ccc5[nH]ncc45)[nH]c(=O)[n+]3Cc3ccccc3)C2)C1` [Compound I-179, 6-(2-acryloyl-2,6-diazaspiro[3.4]octan-6-yl)-1-benzyl-4-(5-methyl-1H-indazol-4-yl)-2-oxo-2H-1l4,3l2-pyrimidine-5-carbonitrile], the Binding % entry was “+ (+ indicates binding activity greater than 0% and up to 50%)”. For `C=CC(=O)N1CC2(CCN(c3nc(C4CCN(C)CC4)nc(-c4c(C)ccc5[nH]ncc45)c3C#N)C2)C1` [Compound I-180, 4-(2-acryloyl-2,6-diazaspiro[3.4]octan-6-yl)-6-(5-methyl-1H-indazol-4-yl)-2-(1-methylpiperidin-4-yl)pyrimidine-5-carbonitrile], the Binding % entry is recorded as “++ (++ indicates binding activity from 50 to 85%)”. `C=CC(=O)N1CC2(CCN(c3nc(OCc4ccc(N5CCN(C)CC5)cn4)nc(-c4c(C)ccc5[nH]ncc45)c3C#N)C2)C1` [Compound I-181, 4-(2-acryloyl-2,6-diazaspiro[3.4]octan-6-yl)-6-(5-methyl-1H-indazol-4-yl)-2-((5-(4-methylpiperazin-1-yl)pyridin-2-yl)methoxy)pyrimidine-5-carbonitrile]: the Binding % result is recorded as “++ (++ indicates binding activity from 50 to 85%)”.

As to `C=CC(=O)N1CC2(CCN(c3c(OC[C@@H]4CCCN4C)ncc(-c4c(C)ccc5cnn(C)c45)c3C#N)C2)C1` [Compound I-182, 3-(2-acryloyl-2,6-diazaspiro[3.4]octan-6-yl)-5-(1,6-dimethyl-1H-indazol-7-yl)-2-(((S)-1-methylpyrrolidin-2-yl)methoxy)isonicoti-nonitrile], the Binding % result was “+ (+ indicates binding activity greater than 0% and up to 50%)”.

For `C=CC(=O)N1CC2(CCN(c3nc(CCN4CCCC4)nc(-c4c(C)ccc5[nH]ncc45)c3C#N)C2)C1` [Compound I-183, 4-(2-acryloyl-2,6-diazaspiro[3.4]octan-6-yl)-6-(5-methyl-1H-indazol-4-yl)-2-(2-(pyrrolidin-1-yl)ethyl)pyrimidine-5-carbonitrile], the Binding % result is “+ (+ indicates binding activity greater than 0% and up to 50%)”. To `C=CC(=O)N1CC2(CCN(c3c(OCCCN(C)C)ncc(-c4c(C)ccc5cnn(C)c45)c3C#N)C2)C1` [Compound I-184, 3-(2-acryloyl-2,6-diazaspiro[3.4]octan-6-yl)-5-(1,6-dimethyl-1H-indazol-7-yl)-2-(3-(dimethylamino)pro-poxy)isonicotinonitrile] belongs “+ (+ indicates binding activity greater than 0% and up to 50%)”.

In the case of `C=CC(=O)N1CC2(CCN(c3nc(OC[C@@H]4CCCN4C)cc(-c4c(C)ccc5[nH]ncc45)c3C#N)C2)C1` [Compound I-185, 2-(2-acryloyl-2,6-diazaspiro[3.4]octan-6-yl)-4-(5-methyl-1H-indazol-4-yl)-6-(((S)-1-methylpyrrolidin-2-yl)methoxy)nicotino-nitrile], the Binding % result is “+++ (+++ indicates binding activity greater than 85%)”. Turning to `C=CC(=O)N1CC2(CCN(c3nc(OCc4ccc(N5CCN(C)CC5)cn4)nc(-c4c(C)ccc5cnn(C)c45)c3C#N)C2)C1` [Compound I-186, 4-(2-acryloyl-2,6-diazaspiro[3.4]octan-6-yl)-6-(1,6-dimethyl-1H-indazol-7-yl)-2-((5-(4-methylpiperazin-1-yl)pyridin-2-yl)methoxy)pyrimidine-5-carbonitrile], the Binding % entry is “+ (+ indicates binding activity greater than 0% and up to 50%)”. Turning to `C=CC(=O)N1CC2(CCN(c3nc(N4CC(N(C)C)C4)cc(-c4c(C)ccc5[nH]ncc45)c3C#N)C2)C1` [Compound I-187, 2-(2-acryloyl-2,6-diazaspiro[3.4]octan-6-yl)-6-(3-(dimethylamino)azeti-din-1-yl)-4-(5-methyl-1H-indazol-4-yl)nicotinonitrile], the Binding % entry is “+ (+ indicates binding activity greater than 0% and up to 50%)”. Take `C=CC(=O)N1CC2(CCN(c3nc(N4CCC(N5CCN(C)[C@H](C)C5)CC4)nc(-c4c(C)ccc5[nH]ncc45)c3C#N)C2)C1` [Compound I-188, 4-(2-acryloyl-2,6-diazaspiro[3.4]octan-6-yl)-2-(4-((R)-3,4-dimethylpiperazin-1-yl)piperidin-1-yl)-6-(5-methyl-1H-indazol-4-yl)pyrimidine-5-carbonitrile]: the Binding % result is on record as “+++ (+++ indicates binding activity greater than 85%)”.

The values are drawn from patent US12134620B2 (ARAXES PHARMA LLC, priority 2018, dated 2024).
